Kd data for one molecule are collected here from PMC4768256, “Using mutagenesis to explore conserved residues in the RNA-binding groove of influenza A virus nucleoprotein for antiviral drug development” (Scientific Reports, 2016).

This assay concerns the target T1, NP (nucleoprotein of influenza A virus H1N1, full-length wild type) (Influenza A virus (A/Nanchang/11/1996(H1N1)), UniProt Q07FI1).
T1 construct: full-length (498 aa), N-terminal 6xHis-tag as printed, pET21b NdeI/XhoI, E. coli, Ni-NTA, RNase-treated lysate
Type of assay: binding.

Structures are written as SMILES.

Broadly, the Kd is the concentration at which binding is half-saturated. High values mean lower affinity, low ones higher affinity.

T1 sequence (Q07FI1 whole entry): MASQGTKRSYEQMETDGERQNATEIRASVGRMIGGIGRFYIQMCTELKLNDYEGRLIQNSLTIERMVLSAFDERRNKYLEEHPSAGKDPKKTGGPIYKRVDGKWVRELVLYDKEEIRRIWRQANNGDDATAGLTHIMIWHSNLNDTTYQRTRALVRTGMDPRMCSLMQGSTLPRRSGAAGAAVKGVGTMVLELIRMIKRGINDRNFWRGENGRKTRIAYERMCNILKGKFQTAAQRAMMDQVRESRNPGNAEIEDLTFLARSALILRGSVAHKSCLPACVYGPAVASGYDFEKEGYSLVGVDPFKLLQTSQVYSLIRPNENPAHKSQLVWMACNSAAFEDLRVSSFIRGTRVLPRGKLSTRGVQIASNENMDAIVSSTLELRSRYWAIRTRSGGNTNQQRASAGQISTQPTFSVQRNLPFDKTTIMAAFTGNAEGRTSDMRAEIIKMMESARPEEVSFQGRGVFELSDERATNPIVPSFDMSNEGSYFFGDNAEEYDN

In the case of `COc1cc(/C=C/C(=O)CC(=O)/C=C/c2ccc(O)c(OC)c2)ccc1O` [H7, (E,E)-1,7-bis(4-hydroxy-3-methoxyphenyl)-1,6-heptadiene-3,5-dione], the Kd came to 1220 nM.
